Holding throughout (assay): Field trial, post-emergence weed control, visual percent control
Common to all, as to assay type: in vivo

The test system of test [1] is TRFPR: red clover (Trifolium pratense). Conditions: 84 DAA, ON, halauxifen-methyl 5, fluroxypyr-meptyl 77, 2,4-D ester 350 g ae/ha, each alone or three-way combination. The source says:
(§1) Nine small plot field trials were established across various ecozones in Alberta, Saskatchewan, Manitoba and Ontario, Canada, between 2011 and 2014 to evaluate potential synergy between 1) halauxifen-methyl (100 grams acid equivalent per kilogram (g ae/kg)), fluroxypyr-meptyl as Starane II EC (333 grams acid equivalent per liter (g ae/L) fluroxypyr), and MCPA 2-ethylhexyl ester (MCPA ester; 600 g ae/L), 2) the halauxifen-methyl+fluroxypyr premix (16.25 g ae/L halauxifen-methyl and 250 g ae/L fluroxypyr-meptyl) and MCPA ester (600 g ae/L), and 3) halauxifen-methyl (100 g ae/kg), fluroxypyr-meptyl as Starane II EC (333 g ae/L fluroxypyr), and 2,4-D 2-ethylhexyl ester (2,4-D ester; 660 g ae/L). In trials evaluating synergy between halauxifen-methyl, fluroxypyr-meptyl, and MCPA ester, actives were applied individually at rates of 6.5, 100, and 420 grams acid equivalent per hectare (g ae/ha), respectively, and in a three-way combination at identical rates. When applied individually, halauxifen-methyl was applied in all trials with Turbocharge adjuvant (50% mineral oil/39.5% surfactant blend) at 0.5% volume per volume (v/v). In trials evaluating synergy between the halauxifen-methyl+fluroxypyr premix, and MCPA ester, premix and MCPA ester were applied individually at rates of 82 g ae/ha (5 g ae/ha halauxifen-methyl+77 g ae/ha fluroxypyr) or 106.5 g ae/ha (6.5 g ae/ha halauxifen-methyl+100 g ae/ha fluroxypyr), and 350 or 420 g ae/ha MCPA ester, respectively, and in a two-way combination at rates of 82 g ae/ha premix+350 g ae/ha MCPA ester or […] premix+420 g ae/ha MCPA ester. When applied individually, the halauxifen-methyl+fluroxypyr premix was applied at a rate of 106.5 g ae/ha without an adjuvant, or at a rate of 82 g ae/ha with Turbocharge adjuvant at 0.5% v/v. In trials evaluating synergy between halauxifen-methyl, fluroxypyr-meptyl, and 2,4-D ester, actives were applied individually at rates of 5, 77, and 350 grams acid equivalent per hectare (g ae/ha), respectively, and in a three-way combination at identical rates. When applied individually, halauxifen-methyl was applied with Intake adjuvant (586 grams per liter (g/L) paraffinic oil/242 g/L alkoxylated alcohol non-ionic surfactants) at 1% volume per volume (v/v).
(§2) Trials were established as randomized complete blocks (RCBD) with four replicates. Individual treatments were 2-3 meters (m) wide and 10-11 m long. An untreated control was included in each trial. All trial sites had naturally occurring populations of weeds, which in some trials were augmented with additional weed seeds during trial establishment.
(§3) Herbicides were applied with backpack, bicycle, or tractor-mounted sprayers using carbon dioxide (CO2) as a propellant. All sprayers delivered a uniform spray pattern that provided thorough coverage of the foliage using a water volume of 100-200 liters per hectare (L/ha). All herbicides were applied post-emergence in the spring to early-summer. At the time of herbicide applications, spring wheat, durum wheat, and winter wheat crops were at the four-leaf to three-node stage. Broadleaf weeds were at the seedling stage at the time of herbicide applications.
(§4) Foliar damage to target pest plants was visually assessed as percent control, compared to an untreated control plot. The assessments were based on a percent visual reduction in pest plant biomass and/or stand reduction of weed population. In general, three-to-four replicates were assessed for each treatment, and the results for each experiment (trial) are presented as overall average control. The efficacy of all treatments was assessed at 13-22 days after application (DAA) for an early season rating, 23-39 DAA for a mid-season rating, and 41-84 DAA for a late-season rating. The data were statistically analyzed using various statistical methods, generally including a Tukey's HSD Factorial Analysis of Variance with a significance level of 5%. […]

Test [2] deals with AMBTR: giant ragweed (Ambrosia trifida). Conditions: 49 DAA, ON, halauxifen-methyl 5, fluroxypyr-meptyl 77, 2,4-D ester 350 g ae/ha, each alone or three-way combination.
Excerpt: as §1, §2, §3, §4

Test [3] deals with POLPE: lady's-thumb (Polygonum persicaria).
Excerpt: as §1, §2, §3, §4

In test [4] the test system is GAETE: hemp-nettle (Galeopsis tetrahit). The settings on record: 14 DAA, AB.
Excerpt: as §1, §2, §3, §4

Test [5] deals with STEME: chickweed, common (Stellaria media). The settings on record: 59 DAA, AB.
Excerpt: as §1, §2, §3, §4

The test system of test [6] is BRSNN: canola, volunteer (Brassica napus). Conditions: SK.
Excerpt: as §1, §2, §3, §4

Test [7] has as its system ARTAB: absinth wormwood (Artemisia absinthium). Conditions: 47 DAA, MB, premix 6.5 + 100 (106.5) g ae/ha, MCPA ester 420 g ae/ha, alone or combined.
Excerpt: as §1, §2, §3, §4

For test [8], the system named is POLCO: wild buckwheat (Polygonum convolvulus). The settings on record: premix 6.5 + 100 (106.5) g ae/ha, MCPA ester 420 g ae/ha, alone or combined.
Excerpt: as §1, §2, §3, §4

For test [9], the system named is AMBEL: ragweed, common (Ambrosia artemisiifolia). The settings on record: 28 DAA, ON, premix 5 + 77 (82) g ae/ha, MCPA ester 350 g ae/ha, alone or combined.
Excerpt: as §1, §2, §3, §4

Setting [10] is: 14 DAA, AB, halauxifen-methyl 6.5, fluroxypyr-meptyl 100, MCPA ester 420 g ae/ha, each alone or three-way combination.
Where [11] appears, read: 49 DAA, AB, halauxifen-methyl 6.5, fluroxypyr-meptyl 100, MCPA ester 420 g ae/ha, each alone or three-way combination.
Setting [12] is: 57 DAA, AB, halauxifen-methyl 6.5, fluroxypyr-meptyl 100, MCPA ester 420 g ae/ha, each alone or three-way combination.
The mark [13] stands for this setting: 59 DAA, AB, halauxifen-methyl 6.5, fluroxypyr-meptyl 100, MCPA ester 420 g ae/ha, each alone or three-way combination.
Setting [14] is: SK, 49 DAA or 57 DAA, halauxifen-methyl 6.5, fluroxypyr-meptyl 100, MCPA ester 420 g ae/ha, each alone or three-way combination.
Where [15] appears, read: halauxifen-methyl 6.5, fluroxypyr-meptyl 100, MCPA ester 420 g ae/ha, each alone or three-way combination.
Where [16] appears, read: 14 DAA, halauxifen-methyl 6.5, fluroxypyr-meptyl 100, MCPA ester 420 g ae/ha, each alone or three-way combination.
Setting [17] is: 33 DAA, halauxifen-methyl 6.5, fluroxypyr-meptyl 100, MCPA ester 420 g ae/ha, each alone or three-way combination.
Where [18] appears, read: premix 6.5 + 100 (106.5) g ae/ha, MCPA ester 420 g ae/ha, alone or combined.

Molecules are shown by their SMILES.

Consider `CCCCC(CC)COC(=O)COc1ccc(Cl)cc1Cl` (centres unmarked) [2,4-D ester, 2-ethylhexyl(2,4-dichlorophenoxy)acetate], for which the “Obs: Observed percent weed control” value in [1] was determined as 7.4%; in test [2], 83%.

On to `CCCCCCC(C)OC(=O)COc1nc(F)c(Cl)c(N)c1Cl` (centres unmarked) [Fluroxypyr-meptyl, 1-methylheptyl 2-[(4-amino-3,5-dichloro-6-fluoro-2-pyridinyl)oxy]acetate], for which the “Obs: Observed percent weed control” value turned out to be 0% in test [3] (setting [10]); 0% in test [3] (setting [11]); 23% in [3] (setting [12]); 61% in test [3] (setting [13]); 25% in test [3] (setting [14]); 39% in [4] (setting [15]). In addition, the “Obs: Observed percent weed control” value in test [1] amounted to 12.4%; in test [5] (setting [15]) it was 15%; in [2] it was 21.7%; in [6] (setting [16]) it was 30%; in test [6] (setting [17]), 20%.

For `COC(=O)c1nc(-c2ccc(Cl)c(OC)c2F)cc(N)c1Cl` [Halauxifen-methyl, methyl 4-amino-3-chloro-6-(4-chloro-2-fluoro-3-methoxyphenyl)-2-pyridinecarboxylate], the “Obs: Observed percent weed control” value in test [3] (setting [10]) came to 0%; in [3] (setting [11]), 0%; in test [3] (setting [12]), 0%; in test [3] (setting [13]), 33%; in test [3] (setting [14]), 10%; in test [4] (setting [15]), 79%. The “Obs: Observed percent weed control” value in [1] is 15%; in test [5] (setting [15]), 24%; in test [2] it was 20%; in test [6] (setting [16]), 20%; in [6] (setting [17]), 15%.

In the case of `CCCCC(CC)COC(=O)COc1ccc(Cl)cc1C` (centres unmarked) [MCPA ester, 2-ethylhexyl 2-(4-chloro-2-methylphenoxy)acetate], the “Obs: Observed percent weed control” value in test [3] (setting [10]) came out at 0%; in test [3] (14 DAA, MB, premix 5 + 77 (82) g ae/ha, MCPA ester 350 g ae/ha, alone or combined) it was 38%; in test [3] (14 DAA, MB, premix 6.5 + 100 (106.5) g ae/ha, MCPA ester 420 g ae/ha, alone or combined) it was 38%; in test [3] (34 DAA, MB, premix 5 + 77 (82) g ae/ha, MCPA ester 350 g ae/ha, alone or combined) it was 40%; in [3] (34 DAA, MB, premix 6.5 + 100 (106.5) g ae/ha, MCPA ester 420 g ae/ha, alone or combined), 40%; in [3] (49 DAA (likely), MB, premix 6.5 + 100 (106.5) g ae/ha, MCPA ester 420 g ae/ha, alone or combined), 27%. Moreover, the “Obs: Observed percent weed control” value worked out at 0% in [3] (setting [11]); 0% in test [3] (49 DAA, AB, premix 6.5 + 100 (106.5) g ae/ha, MCPA ester 420 g ae/ha, alone or combined); 38% in [3] (54 DAA, MB, premix 6.5 + 100 (106.5) g ae/ha, MCPA ester 420 g ae/ha, alone or combined); 0% in test [3] (setting [12]); 0% in [3] (57 DAA, AB, premix 6.5 + 100 (106.5) g ae/ha, MCPA ester 420 g ae/ha, alone or combined); 35% in test [3] (setting [13]). Moreover, the “Obs: Observed percent weed control” value is on record as 35% in test [3] (59 DAA, AB, premix 6.5 + 100 (106.5) g ae/ha, MCPA ester 420 g ae/ha, alone or combined); 30% in test [3] (setting [14]); 31% in test [4] (setting [15]); 31% in test [4] (setting [18]); 0% in [7]; 0% in test [8] (35 DAA, MB). Also, the “Obs: Observed percent weed control” value in [8] (47 DAA, MB) came to 0%; in [8] (63 DAA, AB), 43%; in test [9], 15%; in [5] (setting [15]), 0%; in test [5] (setting [18]), 0%; in test [6] (setting [16]), 80%. Besides, the “Obs: Observed percent weed control” value in test [6] (setting [17]) amounted to 95%; in test [6] (33 DAA, premix 6.5 + 100 (106.5) g ae/ha, MCPA ester 420 g ae/ha, alone or combined) it was 95%.

The record behind these values is patent US20150196030A1, “HERBICIDAL COMPOSITION CONTAINING 4-AMINO-3-CHLORO-6-(4-CHLORO-2-FLUORO-3-METHOXYPHENYL) PYRIDINE-2-CARBOXYLIC ACID OR DERIVATIVES THEREOF, FLUROXYPYR OR DERIVATIVES THEREOF, AND PHENOXY AUXINS OR DERIVATIVES THEREOF” (DOW AGROSCIENCES LLC, priority 2014, published 2015).
